Data from US20230263853A1, “ECTOPARASITICIDE VETERINARY COMPOSITION” (priority 2020, published 2023).

Columns and labels:
[1] = tested on: Pseudomonas aeruginosa (ATCC 27853); assay: In vitro inhibition test against bacteria, Table 8; assay type: cell-based; set-up: key to Inhibitory Activity (stopping power thoroughness and lasting effect): +++ = best; (−) = worst; conditions: B diluted by 1000 times
Description: (§1) An ectoparasiticide veterinary composition of Example 1 (labelled here as PST22) was tested in an in vitro experimental laboratory to test its efficacy against conventional antibiotics used to control harmful bacteria and fungus that cause untold harm in modern poultry producers. Leading world authorities including the World Health Organisation (WHO) have graded Antimicrobial Resistance (AMR) as a serious global health issue that threatens the prevention and treatment of an increasing range of infections.

[2] = tested on: Escherichia coli (ATCC25322); assay: In vitro inhibition test against bacteria, Table 5; assay type: cell-based; set-up: key to Inhibitory Activity (stopping power thoroughness and lasting effect): +++ = best; (−) = worst; conditions: B diluted by 1000 times
Description: as §1

[3] = tested on: Salmonella typhimurium (ATCC 14028); assay: In vitro inhibition test against bacteria, Table 7; assay type: cell-based; set-up: key to Inhibitory Activity (stopping power thoroughness and lasting effect): +++ = best; (−) = worst; conditions: B diluted by 1000 times
Description: as §1

[4] = tested on: Aspergillus niger (ITDI Ref. No. 3008); assay: In vitro inhibition test against fungi, Table 10; assay type: cell-based; set-up: key to Inhibitory Activity (stopping power thoroughness and lasting effect): +++ = best; (−) = worst
Description: (§2) An ectoparasiticide veterinary composition of Example 1 (labelled here as PST22) was tested in an in vitro experimental laboratory to test its efficacy against conventional antibiotics used to control harmful bacteria and fungus that cause untold harm in modern poultry producers.

[5] = tested on: Saccharomyces cerevisiae (ATCC 9763); assay: In vitro inhibition test against fungi, Table 9; assay type: cell-based; set-up: key to Inhibitory Activity (stopping power thoroughness and lasting effect): +++ = best; (−) = worst
Description: as §2

[6] = tested on: Staphylococcus aureus (ATCC 6538P); assay: In vitro inhibition test against bacteria, Table 6; assay type: cell-based; set-up: key to Inhibitory Activity (stopping power thoroughness and lasting effect): +++ = best; (−) = worst; conditions: B diluted by 1000 times
Description: as §1

red mite = assay: Weekly mortality in broiler houses with red mite, trial house vs control house (Example 3); assay type: in vivo, Dermanyssus gallinae; conditions: poultry, over the 28 day period; trial house 4 ml per 10 litres water, control house standard antibiotics
Description: Two broiler houses of poultry were used in the trial, a first “trial house” and a second “control house”. Mortality was recorded weekly to determine the red mite impact on the poultry.
In the trial house, the ectoparasiticide veterinary composition of Example 1 was administered to chickens via the in-line water system at a dose of 4 ml per 10 litres of clean water. The control house used the farm's standard medication program involving the administration of antibiotics (Fosfomycin and enrofloxacin). Flock performance monitoring (measuring the number of mortalities not including the standard cull numbers) was recorded weekly in each house over a 28 day period.

[7] = Average live weight and feed conversion of broiler birds, trial house vs control house (Example 4); assay type: in vivo; conditions: at 28 days, trial house 1 ml per 1 litre drinking water 6 hours daily, control house antibiotics
Description: Two poultry houses were used in the trial: a “trial house” and a “control house”. Each house contained 37000 broiler birds.
In the trial house, the ectoparasiticide veterinary composition of Example 1 was administered each afternoon continuously for 6 hours at a dosage of 1 ml per 1 litre of clean drinking water. The control house used the farm's standard medication program involving the administration of antibiotics (Fosfomycin and enrofloxacin).
Average live weight of the birds in each house was recorded weekly for a 28 day period. At the end of the trial a feed conversion ration was identified.

[8] = A undiluted (10 mm), Amikacin 30 ug (8 mm)
[9] = A undiluted (10 mm), Amikacin 30 ug (6 mm)
[10] = A pure (10 mm), B 1 ml/L (10 mm), Clotrimazole (10 mm)
[11] = PST22 - B 1 ml/L (10 mm), Nystatin (10 mm)
[12] = A undiluted (10 mm), Oxacillin 1 ug (6 mm)

For `NCC[C@H](O)C(=O)N[C@@H]1C[C@H](N)[C@@H](O[C@H]2O[C@H](CN)[C@@H](O)[C@H](O)[C@H]2O)[C@H](O)[C@H]1O[C@H]1O[C@H](CO)[C@@H](O)[C@H](N)[C@H]1O` [Amikacin], which “Average of 3× trials Reactivity Killing Power” value [1, 8] is on record?
Its value is 17.33 mm.

What about the “Trial 1” value [1, 8] of the same molecule?
Its value is 17.89 mm.

What about the “Trial 2” value [1, 8] of the same molecule?
The value was 17.08 mm.

And the “Trial 3” value [1, 8]?
The value was 17.02 mm.

And the “Inhibitory Activity (stopping power thoroughness and lasting effect)” value (shortened to “Inhibitory Activity”) ([1]; A undiluted, Amikacin 30 ug)?
Its value is “+++”.

And the “Average of 3× trials Reactivity Killing Power” value [2, 9]?
Its value is 16.24 mm.

What about the “Trial 1” value [2, 9] of the same molecule?
The value was 16.20 mm.

And the “Trial 2” value [2, 9]?
Its value is 16.39 mm.

What about the “Trial 3” value [2, 9] of the same molecule?
The value was 16.12 mm.

What about the “Inhibitory Activity” value ([2]; A undiluted, Amikacin 30 ug) of the same molecule?
Its value is “+++”.

What about the “Average of 3× trials Reactivity Killing Power” value [3, 8] of the same molecule?
Its value is 16.30 mm.

And the “Trial 1” value [3, 8]?
Its value is 16.12 mm.

And the “Trial 2” value [3, 8]?
The value was 16.26 mm.

What about the “Trial 3” value [3, 8] of the same molecule?
The value was 16.52 mm.

And the “Inhibitory Activity” value ([3]; A undiluted, Amikacin 30 ug)?
The value was “+++”.

With `Clc1ccccc1C(c1ccccc1)(c1ccccc1)n1ccnc1` [Clotrimazole] as the molecule, how does the “Average of 3× trials (larger the better) Reactivity killing power” value [4, 10] read?
The value was 16.06 mm.

And the “Trial 1” value [4, 10]?
The value was 15.80 mm.

What about the “Trial 2” value [4, 10] of the same molecule?
Its value is 16.20 mm.

What about the “Trial 3” value [4, 10] of the same molecule?
Its value is 16.18 mm.

And the “Inhibitory Activity” value ([4]; A pure, B 1 ml/L, Clotrimazole)?
Its value is “+++”.

With `C[C@@H]1[C@H](O)[C@@H](C)/C=C/C=C/CC/C=C/C=C/C=C/C=C/C(O[C@H]2O[C@H](C)[C@@H](O)[C@H](N)[C@@H]2O)CC2O[C@](O)(CC(O)C(O)CCC(O)CC(O)CC(O)CC(=O)O[C@H]1C)CC(O)C2C(=O)O` (stereo partly drawn) [Nystatin] as the molecule, how does the “Average of 3× trials Reactivity Killing Power” value [5, 11] read?
Its value is 4 mm.

What about the “Total Mean Zone of Inhibition” value [5, 11] of the same molecule?
The value was 21.58 mm.

And the “Trail 2” value [5, 11]?
The value was 21.30 mm.

What about the “Trial 1” value [5, 11] of the same molecule?
The value was 21.28 mm.

And the “Trial 3” value [5, 11]?
Its value is 22.17 mm.

What about the “Inhibitory Activity” value ([5]; PST22 - B 1 ml/L, Nystatin) of the same molecule?
Its value is “+++”.

With `Cc1onc(-c2ccccc2)c1C(=O)N[C@@H]1C(=O)N2[C@@H]1SC(C)(C)[C@@H]2C(=O)O` [Oxacillin] as the molecule, how does the “Average of 3× trials Reactivity Killing Power” value [6, 12] read?
Its value is 21.25 mm.

And the “Trial 1” value [6, 12]?
Its value is 22.82 mm.

What about the “Trial 2” value [6, 12] of the same molecule?
The value was 20.20 mm.

What about the “Trial 3” value [6, 12] of the same molecule?
Its value is 20.72 mm.

What about the “Inhibitory Activity” value ([6]; A undiluted, Oxacillin 1 ug) of the same molecule?
The value was “+++”.

What does the source list for Fosfomycin and enrofloxacin?
mortality % (red mite): 5%; final average live weight [7]: 1370 g
